IC50 and Ki data for seven compounds are collected here from US20230391796A1, “GLYCOSIDASE INHIBITORS AND USES THEREOF” (UNIVERSIDAD DE SEVILLA (US) -UNIVERSITY OF SEVILLE (US), priority 2020, published 2023).

Counter-ions that a name gives are not always drawn. Bounds are passed on as bounds.

Assay [1] concerns the target T1, Recombinant Human Hexosaminidase A (HexA) (Homo sapiens, UniProt P06865).
T1 construct: purchased R&D Systems 6237-GH-020
T1 sequence (P06865 89-529): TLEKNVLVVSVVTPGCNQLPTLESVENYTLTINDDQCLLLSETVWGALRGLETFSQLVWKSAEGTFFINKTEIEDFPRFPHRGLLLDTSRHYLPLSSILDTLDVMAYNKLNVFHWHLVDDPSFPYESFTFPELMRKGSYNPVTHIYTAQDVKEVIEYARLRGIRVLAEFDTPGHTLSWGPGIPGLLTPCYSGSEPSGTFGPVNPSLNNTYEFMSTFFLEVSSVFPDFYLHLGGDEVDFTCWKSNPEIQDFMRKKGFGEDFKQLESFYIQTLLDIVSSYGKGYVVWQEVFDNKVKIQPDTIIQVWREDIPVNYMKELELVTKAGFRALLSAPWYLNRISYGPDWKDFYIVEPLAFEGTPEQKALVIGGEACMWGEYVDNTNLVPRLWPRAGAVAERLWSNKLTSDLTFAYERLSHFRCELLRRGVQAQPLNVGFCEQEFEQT
Description: Inhibition assay against rhHexA, 4-methylumbelliferone-N-acetyl-β-D-glucosaminide fluorescence. Format: biochemical. The settings on record: IC50 for lysosomal hHexA; NI = no inhibition detected at 200 μM. The procedure:
Inhibition Assays Against rhHexA
Human Hexosaminidase A (HexA) enzyme, purchased from R&D Systems (cat# 6237-GH-020), were determined by measuring the fluorescent signal corresponding to the rate of hydrolytic activity against the commercially available artificial substrate, 4-Methylumbelliferone-N-acetyl-β-D-glucosaminide. HexA activity assays were performed in a buffer of 100 mM sodium citrate, 250 NaCl, pH 4.5 and 1.0 nM [HexA], then stopped after 20 minutes with a solution of 1.0 M Tris, pH 9.5 to enhance fluorescent signal. Preliminary experiments have shown that reaction rates are linear for 20 minutes after substrate addition, and that 1.0 M Tris at pH 9.5 is sufficient for stopping activity, as signal is stable after stopping. Inhibition assays were run in the presence or absence of various concentrations of inhibitors and at a fixed substrate concentration of 100 μM and 1% DMSO. First, inhibitor was serially diluted to the desired range of concentrations in 2% DMSO buffer. Next, 25 μL, of inhibitor solutions at various concentrations in 2% DMSO Buffer was added to 25 μL, of 4.0 nM enzyme and allowed to incubate at 25° C. for 5 minutes. 50 μL of 200 μM and 1% DMSO substrate was then added and allowed to react for 20 minutes. 100 μL of stop solution was added to reaction mixture, and immediately mixed and aliquoted in 45 μL triplicates to a CORNING 384 well black plate. Fluorescence signal was measured in a BioTek Neo 2 Plate reader set at excitation and emission wavelengths of 355 and 450 nm, respectively. % Activity was subsequently calculated for each inhibitor concentration against the fluorescence signal of uninhibited HexA. […]

In assay [2] the target is T2, Recombinant Human Hexosaminidase B (HexB) (Homo sapiens, UniProt P07686).
T2 construct: purchased R&D Systems 8907-GH-020
T2 sequence (P07686 122-556): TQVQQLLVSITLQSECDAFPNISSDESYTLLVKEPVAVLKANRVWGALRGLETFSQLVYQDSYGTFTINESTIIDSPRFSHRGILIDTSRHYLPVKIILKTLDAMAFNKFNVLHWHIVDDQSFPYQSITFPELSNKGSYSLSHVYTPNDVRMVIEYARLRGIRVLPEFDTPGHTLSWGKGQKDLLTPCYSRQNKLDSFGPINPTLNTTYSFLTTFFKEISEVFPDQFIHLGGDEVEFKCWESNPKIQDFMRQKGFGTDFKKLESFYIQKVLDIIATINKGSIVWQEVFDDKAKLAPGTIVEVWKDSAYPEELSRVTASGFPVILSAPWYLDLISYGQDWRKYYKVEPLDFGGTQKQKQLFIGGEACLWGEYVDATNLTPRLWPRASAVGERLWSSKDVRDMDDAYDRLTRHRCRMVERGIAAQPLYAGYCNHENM
Description: Inhibition assay against rhHexB, 4-methylumbelliferone N-acetyl-β-D-galactosaminide fluorescence. It is filed as biochemical. The settings on record: 5 nM HexB, 150 μM substrate, pH 5.5; NI = no inhibition detected at 200 μM; read-out: hHexB. How it is done: Inhibition Assays Against rhHexB
Inhibition constant (Ki) values for compounds against Recombinant Human Hexosaminidase B (HexB) enzyme, purchased from R&D Systems (cat# 8907-GH-020) are determined by measuring the change in fluorescent signal corresponding to the rate of hydrolytic activity against the commercially available artificial substrate, 4-Methylumbelliferone N-acetyl-β-D-galactosaminide. HexB activity assays were performed in a buffer 100 mM MES at pH 5.5 and 5 nM [HexB]. Inhibition assays were in the presence or absence of various concentrations of inhibitors and at a fixed substrate concentration of 150 μM and 1% DMSO. First, inhibitor was serially diluted to the desired range of concentrations in 2% DMSO buffer. Next, 50 μL, of inhibitor solutions at various concentrations in 2% DMSO Buffer was added to 50 μL of 20 nM enzyme and allowed to incubate at 25° C. for 5 minutes. 100 μL, of 300 μM and 1% DMSO substrate was then added and reaction mixture was immediately mixed and aliquoted in 45 μL triplicates to a CORNING 384 well black plate. Fluorescence signal was measured continuously for 20 minutes at 25° C. in a BioTek Neo 2 Plate reader set at excitation and emission wavelengths of 355 and 450 nm, respectively. Max reaction rates for all inhibitor concentrations were calculated within Gen5 BioTek reader software. % Activity was subsequently calculated for each inhibitor concentration against the max reaction rate of uninhibited HexB. GraphPad Prism 2016 was used to approximate the Morrison Ki values for each inhibitor.

On to `CCC(=O)N[C@H]1CN2/C(=N/Cc3ccccc3)SC[C@@H]2[C@@H](O)[C@@H]1O` [Compound 13, 2-Propanamido-5-N,6-S-(N′-benzyliminomethylidene)-1,2-dideoxy-6-thionojirimycin Hydrochloride], for which the IC50 in assay [1] was above 200 µM. For the same compound, the Ki in assay [2] was above 200 µM.
In the case of `CCC(=O)N[C@H]1CN2/C(=N/Cc3cccc4ccccc34)SC[C@@H]2[C@@H](O)[C@@H]1O` [Compound 14, 2-Propionamido-5-N,6-S-(N′-1-naphthylmethyliminomethylidene)-1,2-dideoxy-6-thionojirimycin hydrochloride], in assay [1], the IC50 is above 200 µM. In assay [2], the Ki was above 200 µM.
`CCC(=O)N[C@H]1CN2/C(=N/Cc3ccc4[nH]ccc4c3)SC[C@@H]2[C@@H](O)[C@@H]1O` [Compound 15, 2-Propionamido-5-N,6-S-(N′-5-indolylmethyliminomethylidene)-1,2-dideoxy-6-thionojirimycin hydrochloride]: the IC50 in assay [1] is above 200 µM. For the same compound, the Ki in assay [2] was above 200 µM.
Take `CC(C)C(=O)N[C@H]1CN2/C(=N/Cc3ccccc3)SC[C@@H]2[C@@H](O)[C@@H]1O` [Compound 16, 2-Isobutanamido-5-N,6-S-(N′-benzyliminomethylidene)-1,2-dideoxy-6-thionojirimycin Hydrochloride]: the IC50 in assay [1] was above 200 µM. Moreover, the Ki in assay [2] is above 200 µM.
On to `CCCC(=O)N[C@H]1CN2/C(=N/Cc3ccccc3)SC[C@@H]2[C@@H](O)[C@@H]1O` [Compound 17, 2-Butanamido-5-N,6-S-(N′-benzyliminomethylidene)-1,2-dideoxy-6-thionojirimycin], for which the IC50 in assay [1] was above 200 µM. Also, the Ki in assay [2] was above 200 µM.
As for `CCNC(=S)N[C@H]1CN2/C(=N/Cc3ccccc3)SC[C@@H]2[C@@H](O)[C@@H]1O` [Compound 18, 2-Ethylthioureido-5-N,6-S-(N′-benzyliminomethylidene)-1,2-dideoxy-6-thionojirimycin], the IC50 in assay [1] was above 200 µM. Moreover, the Ki in assay [2] is above 200 µM.
In the case of `CCCNC(=S)N[C@H]1CN2/C(=N/Cc3ccccc3)SC[C@@H]2[C@@H](O)[C@@H]1O` [Compound 19, 2-Propylthioureido-5-N,6-S-(N′-benzyliminomethylidene)-1,2-dideoxy-6-thionojirimycin], the IC50 in assay [1] was above 200 µM. Moreover, the Ki in assay [2] was above 200 µM.
